Values joined by “and” are separate entries in the source; they are usually repeats but may differ in a detail not shown here. Equal entries are not always repeated. “Also recorded” adds a separate entry of the source. Where two headings read alike, the source gives them in different places.
Key:
[1] = tested on: RAW 264.7; test: Immunogenicity on murine macrophages (nitric oxide release); format: cell-based; details: for immunogenicity (nitric oxide release / nitrite production), in words: RAW264.7, 82 μg/mL, 6 h
Procedure: Cells were cultured in DMEM, with 10% FBS, 1% L-glutamine (2 mM), and 1% penicillin–streptomycin 100 U/mL at 37 °C in an atmosphere containing 5% CO2. RAW264.7 were seeded (1 × 10^5 cells/well) and exposed to five derivatives or Icaridin, at 82 μg/mL or to LPS (1 μg/mL) as a positive control, for 3 and 6 h. After that, nitric oxide release was determined in the culture media as previously described.[32] Experiments were performed in triplicate.

[2] = tested on: HaCaT cells; test: Cytotoxicity on human keratinocytes (MTS); format: cell-based; details: 82 μg/mL, 24 h
Procedure: HaCaT cells were cultured in 5% CO2 at 37 °C in Dulbecco’s modified Eagle’s medium (DMEM), supplemented with 10% fetal bovine serum (FBS), 1% L-glutamine ([…]), and 1% penicillin–streptomycin (Thermo Fisher Scientific, Rodano, Milan, Italy). […] Experiments were performed in triplicate.

[3] = tested on: Caco-2 monolayer; test: Transwell permeation test; format: in vitro ADME; details: 82 μg/mL apical, 3 h
Procedure: To evaluate the possibility of absorption after topical application, we tested the permeation through a Caco-2 monolayer for those compounds best performing in terms of protection time and cytotoxicity. The colorectal adenocarcinoma cell line Caco-2 was purchased from ATCC and cultured in DMEM with 20% FBS, L-glutamine (2 mM), and 1% penicillin–streptomycin 100 U/mL (Thermo Fisher Scientific, Rodano, Milan, Italy) in 5% CO2 at 37 °C.
For the permeation studies, Caco-2 cells, a model of epithelial cells, were seeded into 12-well PET Transwell plates (1.13 cm^2 growth surface area and pore size 0.4 μm, Greiner Bio-One, Milan, Italy) at a density of 2 × 10^5 cells/cm^2 and grown for 21 days to form a confluent monolayer. The integrity of the cellular barrier was then assessed using Lucifer Yellow (LY) permeability test, before the experiments.[33]
After washing, the monolayers were preincubated for 20 min at 37 °C with 0.5 and 1.5 mL of the incubation medium, HBSS/HEPES 25 mM in the apical and basolateral sides, respectively. […] At the end of the experiment, the layer integrity was re-evaluated. […]
One hundred microliters of the collected media was extracted in 100 μL of heptane by vortexing the vial for 2 min; 70 μL of this solution was recovered; and 1 μL was injected in a 7820 GC system-5977B MSD system and analyzed under the same conditions reported in paragraph 2.2. […]

[4] = tested on: Aedes albopictus; test: Protection time at 0.17 mg/cm2, human-bait technique; format: in vivo; details: for pest or weed control at 0.17 mg/cm2, 0.17 mg/cm2: Aedes albopictus, topical, read-out: Protection time PE%; for Average PT >95% (% coefficient of variation) / Estimated 100% PT (complete protection time, mean±SE): at the dose of 0.17mg/cm2; for Estimated 100% PT (complete protection time, mean±SE): Kaplan–Meier estimate; for Protection time (95% protection): dose of 0.17 mg/cm^2, tests ended after 8 h
How it was run: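 Human-bait test with 100 μL of 5% ethanol solution applied to skin (0.17 mg/cm2); ethanol-treated hand as negative control. Repellency checked hourly up to 8 h on up to 8 volunteers; protection time taken as mean time with >95% protection, complete protection time estimated by Kaplan–Meier.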

[5] = tested on: Aedes albopictus; test: Effective dose / protection efficacy, human-bait technique; format: in vivo; details: for pest or weed control at 0.081 µg/cm2, 0.081 µg/cm2 / pest or weed control at 0.17 µg/cm2, 0.17 µg/cm2 / pest or weed control at 0.33 µg/cm2, 0.33 µg/cm2 / pest or weed control at 0.5 µg/cm2, 0.5 µg/cm2 / pest or weed control at 0.83 µg/cm2, 0.83 µg/cm2 / pest or weed control at 1.7 µg/cm2, 1.7 µg/cm2 / pest or weed control at 8.3 µg/cm2, 8.3 µg/cm2 / pest or weed control at 16.7 µg/cm2, 16.7 µg/cm2 / pest or weed control at 83.3 µg/cm2, 83.3 µg/cm2: Aedes albopictus, topical, read-out: Protection efficacy PE%; for 100% PE: Table S1; for Protection efficacy (dose to obtain complete protection (100%) from bite attempts): applied on skin of volunteers, 3 min exposure
Procedure: The repellence of DEET, Icaridin (both supplied by Istituto Biochimico VEBI s.r.l.), acetals, and the synthesized hydroxyacetals was evaluated againstAedes albopictususing the human-bait technique (to simulate the condition of human skin on which repellents will be applied).[22]A. albopictuswas reared and tested at 26 ± 2 °C, ≥60 ± 10% relative humidity (RH), and at 14:10 h light/dark photoperiod, within Plexiglas cylindrical laboratory cages (35 cm diameter, 60 cm length) with one end closed by a net. During the tests, cages contained ≈150 nulliparous, 4–7 day-old, nonblood-fed females. For each compound to be tested, up to six volunteers participated in the trial.
The study was approved by the Regional Ethics Committee for Clinical Trials of Tuscany Region with the registered number 20383. Volunteers agreed to take part in the experiments following informed consent; only volunteers non-allergic to mosquito bites participated in the trials. On the day of the bioassay, they had no contact with lotions, perfumes, oils, or perfumed soaps. They wore latex surgical gloves, in which a dorsal square area of 30 cm^2 was cut open. Mosquito-exposed skin was treated with 50 μL of ethanol, as the negative hand control. The other hand was treated with 50 μL of the tested compounds in ethanol solution (dosages corresponding to 0.081, 0.17, 0.33, 0.5, 0.83, 1.7, 8.3, 16.7, and 83.3 μg/cm^2). Both hands were presented in the same test cage. The number of probing mosquitoes in a 3 min exposure period was recorded. During each test, the control and the treated hand were presented interchanged to verify the mosquitoes’ readiness to bite. Trials were considered valid only if at least 30 mosquitoes performed probing behavior on the control hand before each repellent dosage was tested. The protection efficacy (PE %) obtained from all replicates was calculated, according to the WHO guidelines[31] using this formula [drawing 1]
To evaluate the protection efficacy, volunteers applied increasing doses of the compounds to the skin on the back of their hands (30 cm^2, while the rest was covered with a rubber glove) and counted the number of mosquitoes attempting to bite; the solvent only was used on the control hand. The protection (percentage of repelled mosquitoes) was calculated as reported in the Material and Methods section.

Row | SMILES | immunogenicity (nitric oxide release / nitrite production), in words [1] | survival of keratocytes [2] | permeability value lower compared to Icaridin [3] [%] | pest or weed control at 0.17 mg/cm2, 0.17 mg/cm2 ([4]; 0.17mg/cm2, 1 h) [%] | pest or weed control at 0.17 mg/cm2, 0.17 mg/cm2 ([4]; 0.17mg/cm2, 2 h) [%] | pest or weed control at 0.17 mg/cm2, 0.17 mg/cm2 ([4]; 0.17mg/cm2, 3 h) [%] | pest or weed control at 0.17 mg/cm2, 0.17 mg/cm2 ([4]; 0.17mg/cm2, 4 h) [%] | pest or weed control at 0.17 mg/cm2, 0.17 mg/cm2 ([4]; 0.17mg/cm2, 5 h) [%] | pest or weed control at 0.17 mg/cm2, 0.17 mg/cm2 ([4]; 0.17mg/cm2, 6 h) [%] | pest or weed control at 0.17 mg/cm2, 0.17 mg/cm2 ([4]; 0.17mg/cm2, 7 h) [%] | pest or weed control at 0.17 mg/cm2, 0.17 mg/cm2 ([4]; 0.17mg/cm2, 8 h) [%] | Average PT >95% (% coefficient of variation) [4] | Estimated 100% PT (complete protection time, mean±SE) [4] [min] | Protection time (95% protection) [4] [h] | pest or weed control at 0.081 µg/cm2, 0.081 µg/cm2 ([5]; 0.081 µg/cm2) [%] | pest or weed control at 0.17 µg/cm2, 0.17 µg/cm2 ([5]; 0.17 µg/cm2) [%] | pest or weed control at 0.33 µg/cm2, 0.33 µg/cm2 ([5]; 0.33 µg/cm2) [%] | pest or weed control at 0.5 µg/cm2, 0.5 µg/cm2 ([5]; 0.5 µg/cm2) [%] | pest or weed control at 0.83 µg/cm2, 0.83 µg/cm2 ([5]; 0.83 µg/cm2) [%] | pest or weed control at 1.7 µg/cm2, 1.7 µg/cm2 ([5]; 1.7 µg/cm2) [%] | further results
1 | OCC1COC2(CCCCCCC2)O1 (stereo not shown) [12a] | did not exhibit immunogenicity; also recorded: indistinguishable from the negative control | > 88% and 100% | 44 | 100 | 100 | 100 | 100 | 100 | 97.1 | 96.9 | 100 | 480 (0) min | 380 ± 20 | 8 | 46.3 | 58.9 | 62.2 | 87 | 90.7 | 100 | pest or weed control at 8.3 µg/cm2, 8.3 µg/cm2 ([5]; 8.3 µg/cm2): 100%; pest or weed control at 16.7 µg/cm2, 16.7 µg/cm2 ([5]; 16.7 µg/cm2): 100%; pest or weed control at 83.3 µg/cm2, 83.3 µg/cm2 ([5]; 83.3 µg/cm2): 100%; 100% PE [5]: 1.7 µg/cm2; Protection efficacy (dose to obtain complete protection (100%) from bite attempts) [5]: 1.7 μg/cm^2
2 | CC(C)CC1(CC(C)C)OCC(C)(CO)CO1 [17b] | did not exhibit immunogenicity; also recorded: indistinguishable from the negative control | > 88% and 92% | 17 | 100 | 98.7 | 99.1 | 100 | 96.8 | 93.6 | 95.6 | 96.5 | 480 (5.0) min | 300 ± 94 | 8 | 8.33 | 27.8 | 50.8 | 44.4 | 58.1 | 94.8 | pest or weed control at 8.3 µg/cm2, 8.3 µg/cm2 ([5]; 8.3 µg/cm2): 100%; pest or weed control at 16.7 µg/cm2, 16.7 µg/cm2 ([5]; 16.7 µg/cm2): 100%; pest or weed control at 83.3 µg/cm2, 83.3 µg/cm2 ([5]; 83.3 µg/cm2): 100%; Protection efficacy (dose to obtain complete protection (100%) from bite attempts) [5]: 8.3 μg/cm^2
3 | CCC(C)OC(=O)N1CCCCC1CCO (stereo not shown) [Icaridin, reference compound] | three-time increase in the nitrite production compared to the control treatment | 91% |  |  |  |  |  |  |  |  |  | 480 (2.2) min | 370 ± 52 |  |  |  |  |  |  |  | production of nitrite as compared to the positive control ([1]; RAW264.7, positive control LPS 1 μg/mL): 40%; Protection time PE% ([4]; 0.17mg/cm2, 0 min): 100%; pest or weed control at 0.17 mg/cm2, 0.17 mg/cm2 ([4]; 1 h): 100%; pest or weed control at 0.17 mg/cm2, 0.17 mg/cm2 ([4]; 2 h): 100%; pest or weed control at 0.17 mg/cm2, 0.17 mg/cm2 ([4]; 3 h): 99.5%; pest or weed control at 0.17 mg/cm2, 0.17 mg/cm2 ([4]; 4 h): 99.5%; pest or weed control at 0.17 mg/cm2, 0.17 mg/cm2 ([4]; 5 h): 99.8%; pest or weed control at 0.17 mg/cm2, 0.17 mg/cm2 ([4]; 6 h): 98.7%; pest or weed control at 0.17 mg/cm2, 0.17 mg/cm2 ([4]; 7 h): 98.7%; pest or weed control at 0.17 mg/cm2, 0.17 mg/cm2 ([4]; 8 h): 97.6%; pest or weed control at 0.081 µg/cm2, 0.081 µg/cm2 [5]: 42.4%; pest or weed control at 0.17 µg/cm2, 0.17 µg/cm2 [5]: 53.7%; pest or weed control at 0.33 µg/cm2, 0.33 µg/cm2 [5]: 61.8%; pest or weed control at 0.5 µg/cm2, 0.5 µg/cm2 [5]: 77.8%; pest or weed control at 0.83 µg/cm2, 0.83 µg/cm2 [5]: 69.3%; pest or weed control at 1.7 µg/cm2, 1.7 µg/cm2 [5]: 99.6%; pest or weed control at 8.3 µg/cm2, 8.3 µg/cm2 [5]: 100%; pest or weed control at 16.7 µg/cm2, 16.7 µg/cm2 [5]: 100%; pest or weed control at 83.3 µg/cm2, 83.3 µg/cm2 [5]: 100%; 100% PE [5]: 8.3 µg/cm2

Reference: paper PMC9896555, “Cyclic Acetals as Novel Long-Lasting Mosquito Repellents” (Journal of Agricultural and Food Chemistry, 2023)
